The values below come from publication PMC4911292 (Clinical cancer research : an official journal of the …, 2016).

On the set-up of series [1]: species or system human. Particulars: in vivo.
The subject of series [2] is pretreated metastatic breast cancer. The settings on record: single agent; cited from earlier work.
Series [3] in a line: Veliparib pharmacokinetics in plasma and urine. The series is classed as in vivo, human.
The test system of series [4] is advanced triple-negative breast cancer and/or BRCA mutation-associated breast cancer. Nature of the series: Preliminary efficacy. The series is classed as in vivo, human. Particulars: veliparib with cisplatin and vinorelbine.
Series [5] deals with patients with recurrent and/or metastatic TNBC and/or BRCA mutation-associated breast cancer.
For series [6], the system named is CYP enzymes. The settings on record: cited from earlier work.
The subject of series [7] is P-glycoprotein (P-gp). Particulars: cited from earlier work.
Series [8] relates to germline BRCA mutation-associated cancer. The settings on record: monotherapy throughout a 28-day cycle; cited from earlier work.
In series [9] the test system is PARP. The settings on record: at lower doses; cited from earlier work.
For series [10] the following is noted: cited from earlier work.
Setting [11] is: germline BRCA1 and BRCA2 wild-type, n=26.
Setting [12] is: germline BRCA1 or BRCA2 mutation positive, n=14.
Where [13] appears, read: N=50, veliparib with cisplatin and vinorelbine, any time during study.
[14] abbreviates: veliparib monotherapy, 23 patients.
The mark [15] stands for this setting: veliparib with cisplatin and vinorelbine, N=50.

`N.N.[Cl][Pt][Cl]` [cisplatin]: in series [1], the “Median C4/C1 ratio for ultrafilterable platinum AUC0-24” value was determined as 0.98 and the “Median C4/C1 ratio for ultrafilterable platinum Cmax” value is on record as 0.99. In addition, in series [2], the Response rate result is on record as “less than 10%”.

With `C[C@]1(c2nc3c(C(N)=O)cccc3[nH]2)CCCN1` [veliparib], the “Proportion of the first dose excreted in the urine over 12 hours (median)” value in [3] (cycle 1, N=20) is on record as 61.7%. Moreover, the “Proportion of the first dose excreted in the urine over 12 hours (median)” value in series [3] (cycle 4, N=20) came to 66.7%. Moreover, the “Median C4/C1 ratio of Cmax” value in series [3] (cycle 4 day 1 vs cycle 1 day 0, N=32, range 0.36-2.00) was 0.85. Besides, in series [3] (cycle 4 day 1 vs cycle 1 day 0, N=32, range 0.44-1.64), the “Median C4/C1 ratio of AUC0-6” value was 0.82. For the same molecule, in [4] (48 patients), the “Best overall response: complete response” value stood at 4%, the “Progressive disease as best response or not assessed due to disease or toxicity” value was found to be 21% and the “Stable disease as best response” value is given as 44%. Besides, the “Overall response rate (CR+PR, confirmed)” value in [4] (48 patients, 95% CI 23%-50%) is recorded as 35%. Further, the “Response (CR+PR)” value in [4] (BRCA mutation present) worked out at 57%. Also, the Median progression-free survival in [4] (all 50 patients, 95% CI 4.1-6.7) is given as 5.5 months. The molecule further registered a Median overall survival in [4] (all patients, 95% CI 8.1-20.7) of 9.6 months. Also, in series [4] (setting [11]), the “Best overall response: Complete response (CR)” value (“Best overall response … (CR)” below) is 1 (4%) n(%), the “Best overall response: Partial response (PR)” value (from here on “Best overall response … (PR)”) was 7 (27%) n(%) and the “Best overall response: Progressive disease (PD)” value (“Best overall response … (PD)” below) is on record as 6 (23%) n(%). In series [4] (setting [12]), the “Best overall response … (CR)” value is 1 (7%) n(%), the “Best overall response … (PR)” value is listed as 7 (50%) n(%), the “Best overall response … (PD)” value is 1 (7%) n(%) and the “Clinical benefit (PFS6) rate” value is reported as 10 (71%) n(%). For the same molecule, in series [4] (germline BRCA mutation), the “Median OS” value is 22.6 months and the “Median PFS” value turned out to be 9.2 months. In addition, the “6-month progression-free survival (PFS6)” value in series [4] (germline BRCA mutation absent) came to 30%. Also, the “6-month progression-free survival (PFS6)” value in [4] (germline BRCA mutation present) stood at 71%. The “Median PFS” value in series [4] (germline BRCA wild-type) is listed as 4.2 months. Besides, in [4] (total, n=48), the “Best overall response … (CR)” value was 2 (4%) n(%), the “Best overall response … (PR)” value was 15 (31%) n(%) and the “Best overall response … (PD)” value was 10 (21%) n(%). For the same molecule, in [4] (unknown mutation status, n=8), the “Best overall response … (PR)” value is recorded as 1(12%) n(%), the “Best overall response … (PD)” value is on record as 3 (38%) n(%) and the “Clinical benefit (PFS6) rate” value is 2 (25%) n(%). For the same molecule, in series [4] (unknown mutational status), the “Median OS” value stood at 6.2 months and the “Median PFS” value was 4.0 months. In addition, the Dose limiting toxicity entry in series [5] (40 mg dose level, with cisplatin and vinorelbine, one patient, bone marrow involvement of breast cancer) was “grade 4 thrombocytopenia”. In series [5] (setting [13]), the “Anemia, All grades” value was 32 (64%) N (%); the “Anorexia, All grades” value was 17 (34%) N (%); the “Dehydration, All grades” value is on record as 17 (34%) N (%); the “Dyspepsia, All grades” value is reported as 11 (22%) N (%). In addition, in [5] (setting [13]), the “Fatigue, All grades” value is listed as 40 (80%) N (%); the “Hypokalemia, All grades” value is 13 (26%) N (%); the “Nausea, All grades” value is recorded as 43 (86%) N (%); the “Neutrophil count decreased, All grades” value is on record as 31 (62%) N (%). In series [5] (setting [13]), the “Peripheral sensory neuropathy, All grades” value was 21 (42%) N (%); the “Platelet count decreased, All grades” value was 33 (66%) N (%); the “Tinnitus, All grades” value was 26 (52%) N (%); the “Vomiting, All grades” value is 21 (42%) N (%). Besides, the “Recommended phase II dose (RP2D)” value in series [5] (in combination with cisplatin and vinorelbine) was 300 mg BID. Further, the “Patients reporting AEs on monotherapy” value in series [5] (veliparib monotherapy) was “Six of 23”. In series [5] (setting [14]), the “Dyspepsia, any grade” value was found to be 17%; the “Nausea, any grade” value was 17%; the “Vomiting, any grade” value worked out at 17%. Further, in [5] (setting [15]), the “Grade 3/4 anemia” value was 30%, the “Grade 3/4 neutropenia” value is on record as 36% and the “Grade 3/4 thrombocytopenia” value is listed as 12%. For the same molecule, in [6], the “Inhibition or induction of major CYP enzymes” value is recorded as “does not appear to inhibit or induce the activity of major CYP enzymes”, the “Share of oral clearance accounted for by CYP2D6” value is ~ 18% and the “Share of oral clearance accounted for by additional liver metabolism” value is on record as 10%. In addition, in series [7], the “Inhibition or induction of P-gp” value is listed as “does not appear to inhibit or induce P-gp” and the P-gp substrate status entry is recorded as “weak P-glycoprotein (P-gp) substrate”. Besides, the “Current RP2D as monotherapy” value in series [8] is on record as 400 mg BID. For the same molecule, in [9], the “PARP inhibition by PAR assay” value is reported as 90%.

Consider `CCC1=C[C@@H]2CN(C1)Cc1c([nH]c3ccccc13)[C@@](C(=O)OC)(c1cc3c(cc1OC)N(C)[C@H]1[C@@](O)(C(=O)OC)[C@H](OC(C)=O)[C@]4(CC)C=CCN5CC[C@]31[C@@H]54)C2` [vinorelbine], for which, in series [10], the “Renal excretion, share of the administered dose” value is reported as “approximately 10%”.
